{
  "source": "patent US20050100983A1",
  "about": "“Cell-free methods for identifying compounds that affect toll-like receptor 9 (TLR9) signaling” (Coley Pharmaceutical GmbH, priority 2003, published 2005)",
  "key": {"murine TLR9": {"tested_on": "murine TLR9", "assay": "NF-κB luciferase assay, HEK 293 cells transfected with murine TLR9", "format": "cell-based", "conditions": "TLR9-transfected HEK 293 cells, 1 μM CpG-DNA, inhibitor added 15 min prior to stimulation", "method": "Activation is expressed as fold induction compared to no stimulation. NF-κB luciferase assay. For monitoring transient NF-κB activation, 3×10^6 HEK 293 cells were electroporated at 200 volt and 950 μF with 20 ng of a NF-κB luciferase reporter plasmid (kindly provided by Patrick Baeuerle, Munich, Germany) and 1 μg mTLR2 (kindly provided by Tularik, Inc., South San Francisco, USA), mTLR9, or mTLR9-mut expression plasmid. Cells were seeded at 10^5 cells per well and after overnight culture stimulated with 1 μM phosphorothioated CpG-DNA 1668 (SEQ ID NO:1), 1 μM non-CpG-DNA 1668GC (SEQ ID NO:3), 1 μg/ml Pam[…][…] or 1 μg/ml PHCK4 for further 8 hours. […] Stimulated cells were lysed using reporter lysis buffer (Promega, Mannheim, Germany) and lysates were assayed for luciferase activity using a Berthold luminometer (Wildbad, Germany) according to the manufacturer's instruction."}, "murine TLR2": {"tested_on": "murine TLR2", "assay": "NF-κB luciferase assay, HEK 293 cells transfected with murine TLR2", "format": "cell-based", "conditions": "TLR2-transfected HEK 293 cells, 1 μg/ml Pam3Cys"}, "TLR9-CpG-DNA interaction": {"molecular_target": "T1, TLR9-CpG-DNA interaction (Mus musculus, UniProt Q9EQU3)", "T1 construct": "mTLR9ect (aa 1-816); made in house", "T1 sequence (Q9EQU3 26-816)": "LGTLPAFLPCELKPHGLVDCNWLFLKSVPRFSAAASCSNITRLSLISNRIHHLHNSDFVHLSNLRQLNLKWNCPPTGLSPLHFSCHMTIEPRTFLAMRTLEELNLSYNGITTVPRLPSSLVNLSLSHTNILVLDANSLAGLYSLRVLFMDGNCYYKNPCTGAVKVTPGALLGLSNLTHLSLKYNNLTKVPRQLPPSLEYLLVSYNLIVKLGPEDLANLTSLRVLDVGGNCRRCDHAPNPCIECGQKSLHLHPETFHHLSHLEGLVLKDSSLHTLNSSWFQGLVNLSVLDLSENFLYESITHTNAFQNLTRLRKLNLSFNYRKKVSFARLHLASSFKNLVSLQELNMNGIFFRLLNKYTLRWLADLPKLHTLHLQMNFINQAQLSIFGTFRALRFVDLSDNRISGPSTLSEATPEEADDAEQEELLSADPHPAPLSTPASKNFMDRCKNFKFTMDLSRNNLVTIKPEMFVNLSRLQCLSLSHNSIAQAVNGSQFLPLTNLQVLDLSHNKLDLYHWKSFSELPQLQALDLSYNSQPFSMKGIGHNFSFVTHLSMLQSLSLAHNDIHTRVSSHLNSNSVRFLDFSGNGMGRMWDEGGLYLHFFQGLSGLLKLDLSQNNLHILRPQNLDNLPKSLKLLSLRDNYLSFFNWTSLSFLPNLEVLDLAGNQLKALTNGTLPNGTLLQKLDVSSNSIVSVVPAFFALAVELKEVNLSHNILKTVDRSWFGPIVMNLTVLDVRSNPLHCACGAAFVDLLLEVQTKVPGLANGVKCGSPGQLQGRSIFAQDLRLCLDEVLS", "assay": "SPR biosensor analysis of inhibitors on TLR9-CpG-DNA interaction", "format": "binding, murine", "conditions": "for inhibition of binding of TLR9 to CpG-DNA: SPR, 200 nM TLR9, immobilized CpG-DNA 1668", "method": "Biotinylated CpG-DNA 1668 (SEQ ID NO:1) and non-CpG-DNA 1668GC (SEQ ID NO:3) were immobilized on streptavidin sensor chip flow cells 1 and 2, respectively.\nFIG. 2B is a graph depicting SPR biosensor analysis of quinoquine (QC) on TLR9-PAMP interaction. Biotinylated CpG-DNA 1668 (SEQ ID NO:1) and non-CpG-DNA 1668GC (SEQ ID NO:3) were immobilized on streptavidin sensor chip flow cells 1 and 2, respectively. 200 nM TLR9 and indicated concentrations of quinoquine were injected and sensorgrams recorded.\nSPR biosensor analysis. Real-time binding of TLR9 or TLR2 was measured by surface plasmon resonance biosensor technology using the BiaCore X system (Uppsala, Sweden). For analysis of TLR9 and TLR2 interaction, biotinylated CpG-DNA and non-CpG-DNA, or biotinylated Pam3CysK4 and PHCK4, respectively, were loaded in running buffer (50 mM MES, 150 mM NaCl, 1 mM MgCl2 at pH 6.5) on SA chips precoated with streptavidin (Biacore AB, Uppsala, Sweden). Non-CpG-DNA or PHCK4 (Wiesmuller K H et al. (1989) Vaccine 7:29-33) served as reference for CpG-DNA and Pam3CysK4 interaction (structure or sequence in Table 1). […] TLR proteins were introduced at 200 nM or as indicated in 40 μl running buffer at a flow rate of 10 μl/min. Binding was measured at 25° C. for 750 s (delay time 300 s). […] Sensorgrams were recorded and kinetic data were calculated by the BiaCore Evaluation program (Biacore, version 3.0.1). Regeneration of the chip was performed by injection of 10 μl 50 mM NaOH, 1 M NaCl and extensive re-equilibration."}, "[1]": {"molecular_target": "T2, mTLR2ect (TLR2-Pam3Cys interaction) (Mus musculus, UniProt Q9QUN7)", "T2 construct": "mTLR2ect (aa 1-587); made in house", "T2 sequence (Q9QUN7 25-587)": "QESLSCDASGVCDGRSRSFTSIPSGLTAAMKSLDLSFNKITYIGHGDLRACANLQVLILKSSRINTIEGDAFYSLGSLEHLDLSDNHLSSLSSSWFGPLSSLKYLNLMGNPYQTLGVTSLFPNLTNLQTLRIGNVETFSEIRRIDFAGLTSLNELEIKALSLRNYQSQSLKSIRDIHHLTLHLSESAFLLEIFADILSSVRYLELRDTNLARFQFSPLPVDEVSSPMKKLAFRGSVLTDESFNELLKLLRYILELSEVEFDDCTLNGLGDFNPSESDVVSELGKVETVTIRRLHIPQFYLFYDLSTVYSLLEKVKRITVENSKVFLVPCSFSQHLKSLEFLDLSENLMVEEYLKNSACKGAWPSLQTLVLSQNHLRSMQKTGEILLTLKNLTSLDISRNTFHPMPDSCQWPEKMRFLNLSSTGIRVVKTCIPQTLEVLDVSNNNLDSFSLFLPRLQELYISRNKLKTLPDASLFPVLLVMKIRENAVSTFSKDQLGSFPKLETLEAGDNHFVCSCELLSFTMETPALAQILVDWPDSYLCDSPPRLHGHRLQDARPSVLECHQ", "assay": "SPR biosensor analysis of TLR2-Pam3Cys binding", "design": "species or system murine", "conditions": "PHC as reference"}},
  "note": "Ends that are not written are not given here. * marks the point of attachment. X1 = 2,3‑bis(palmitoyloxy)‑(2RS)‑propyl, CCCCCCCCCCCCCCCC(=O)OCC(C*)OC(=O)CCCCCCCCCCCCCCC; Palmitoyl = CCCCCCCCCCCCCCCC(=O)*",
  "data": [
    {"molecule": "CCN(CC)CCCC(C)Nc1ccnc2cc(Cl)ccc12", "note": "(stereo not drawn) [chloroquine]", "values": [
      {"measurement": "inhibition of TLR9-driven NF-κB activation", "setting": "murine TLR9", "value": "dose-dependently inhibit"},
      {"measurement": "inhibition of Pam3Cys-driven cellular activation", "setting": "murine TLR2", "value": "inhibited neither"},
      {"measurement": "inhibition of binding of TLR9 to CpG-DNA", "setting": "TLR9-CpG-DNA interaction", "value": "dose-dependently inhibit"}
    ]},
    {"molecule": "CCN(CC)CCCC(C)Nc1c2ccc(Cl)cc2nc2ccc(OC)cc12", "note": "(stereo not drawn) [quinacrine]", "values": [
      {"measurement": "inhibition of TLR9-driven NF-κB activation", "setting": "murine TLR9", "value": "dose-dependently inhibit"},
      {"measurement": "inhibition of Pam3Cys-driven cellular activation", "setting": "murine TLR2", "value": "inhibited neither"},
      {"measurement": "inhibition of TLR2-Pam3Cys binding", "setting": "[1]; 200 nM TLR2, immobilized Pam3Cys", "value": "inhibited neither"},
      {"measurement": "potency in blocking TLR9-CpG-DNA interaction and cellular activation, compared with chloroquine", "setting": "TLR9-CpG-DNA interaction; SPR and TLR9-transfected HEK 293 cells", "value": "more potent"},
      {"measurement": "inhibition of binding of TLR9 to CpG-DNA", "setting": "TLR9-CpG-DNA interaction", "value": "dose-dependently inhibit"}
    ]},
    {"molecule": "S-(2,3-bis(palmitoyloxy)-(2-RS)-propyl)-N-palmitoyl-(R)-Cys-(S)-Ser-(S)-Lys(4) (Palmitoyl-C(X1)SKKKK; also: biotinylated (site not given here)) [Pam3Cys]", "values": [
      {"measurement": "Binding of TLR2 to Pam3Cys", "setting": "[1]", "value": "specific"}
    ]}
  ]
}
